Results from patent publication US9334487B2, “Methods for diagnosing rheumatoid arthritis” (Imperial Innovations Limited, priority 2007, dated 2016).
Entries after “also recorded” stand apart in the source; their conditions may differ. Bridges are numbered along the chain shown (N, C = ends). Where no end group is shown, it is not given here. [ ]: non-standard residue; d: D form. Cit = NC(=O)NCCC[C@H](N)C(=O)O

Legend:
[1] = test system: anti-CEP-1 antibodies in anti-CEP-1 positive RA sera; experiment: Liquid phase inhibition of binding to CEP-1-coated plates; set-up: species or system human; details: six anti-CEP-1 positive RA sera pre-incubated with 0, 1, 10 and 100 μg/ml peptide
Method: Inhibition experiments were performed in liquid phase on six anti-CEP-1 positive RA serum samples or on solid phase using serum from nine double positive (anti-CEP-1 and CCP positive) RA patients. Sera were either pre-incubated for 2 hours in RIA-buffer containing increasing concentrations (0, 1, 10 and 100 μg/ml) of CEP-1, control peptide 1D, peptide 4, peptide 7, peptide 9 or peptide 11, or pre-absorbed on plates coated with CEP-1, carbonate buffer alone or pre-absorbed on commercial CCP2 plates. To eliminate antigen-antibody complexes, the liquid phase mixtures were centrifuged at 13 000 rpm, for 15 minutes, before the supernatants were transferred to CEP-1-coated plates and assessed as described above Inhibition of binding to CEP-1, for serum samples pre-absorbed to CCP, was calculated in relation to the maximum inhibition, which by definition was set to 100% for samples pre-incubated with CEP-1.

[2] = test system: serum IgG of RA patients, disease controls and healthy controls; experiment: ELISA for IgG antibodies to cyclic α-enolase peptides, UK cohort sera; format: binding, human; details: for % positive, RA (n = 102): UK cohort RA sera; for % positive, RA (n = 102) / % positive, Disease controls (n = 110) / % positive, Healthy controls (n = 92): cut-off OD450 = 0.1; for % positive, Disease controls (n = 110) / % positive, Healthy controls (n = 92) / sensitivity for RA: UK cohort; for sensitivity for RA / IgG antibody levels / reactivity (OD450) in RA sera: 102 RA patients; for IgG antibody levels / reactivity (OD450) in RA sera: OD450 (peptide)-OD450 (background)
From the text: (§1) Serum samples were obtained with informed consent and ethical approval from 102 patients with RA and 92 (or 110 patients for the results generally shown in FIGS. 9 to 16) patients with other arthritidies (including systemic lupus erythematosus (n=32), Sjogrens syndrome (n=31), psoriatic arthritis (n=5), Behçet's syndrome (n=18; FIGS. 9 to 16) and miscellaneous other rheumatic diseases (n=24). 92 control serum samples were obtained from healthy volunteers. An additional cohort of 24 patients with RA undergoing treatment with either methotrexate (MTX) alone (n=13) or methotrexate in combination with Infliximab (INF) (n=11) were collected before treatment as well as 6, 18 and 52 weeks post treatment. Disease activity score (DAS 28), erythrocyte sedimentation rate (ESR) and C-reactive protein (CRP) were measured for each patient at the same time points, i.e. 0, 6, 18 an 52 weeks post treatment. All patients attended the Rheumatology Clinic at Charing Cross Hospital, London. An independent cohort from the US included serum samples from 81 RA patients, taken at baseline in a clinical trial at the Omaha Veterans Affairs Medical Centre, University of Nebraska, USA, and 82 serum samples from healthy volunteers. All RA patients met the American College of Rheumatology (ACR) classification criteria (43).
Fifteen cyclic 15 to 23-mer peptides were synthesised at Cambridge Research Biochemicals (Cleveland, UK). The peptide sequences corresponded to amino acid sequences in human α-enolase (SwissProt accession number P06733) or P. gingivalis enolase (SwissProt accession number AAQ66821), with the addition of cysteine residues at the amino- and carboxy-termini and the exchange of citrulline for arginine residues at certain positions, as shown in Tablet and Table 2 below.
(§2) 96-well plates (Maxisorp; Nunc, Roskilde, Denmark) were coated with α-enolase peptides at 10 μg/ml (diluted in a 50 mM carbonate buffer, pH 9.6), or with carbonate buffer alone, and incubated over night at 4° C. Wells were washed with PBS-Tween (0.05%) and blocked with 2% BSA (diluted in PBS) for 3 hours at room temperature. Sera were diluted 1:50 in RIA-buffer (10 mM Tris, 1% BSA, 350 mM NaCl, 1% Triton-X, 0.5% Na-deoxychlate, 0.1% SDS) supplemented with 10% FCS, added in duplicates and incubated for 1.5 hour at room temperature. Plates were washed as described above and incubated with peroxidase-conjugated mouse anti-human IgG (Hybridoma Reagent Laboratory, Baltimore, USA) (diluted 1:1000 in RIA-buffer, 10% FCS) for 1 hour at room temperature. After a final wash (PBS-Tween, 0.05%), bound antibodies were detected with TMB substrate (KPL, Maryland, USA). The reaction was stopped by the addition of 1M H2SO4 and absorbance measured at 450 nm in a Multiscan Ascent microplate reader (Thermo Labsystems). A control serum was included on all plates to correct for plate-to-plate variation. Background OD450 (wells coated with only carbonate buffer) was subtracted from peptide OD450 for every serum tested. Values above 0.1 were taken as positive. ELISA on the US serum samples were performed in a similar manner, but with 2% BSA in carbonate buffer as background, and with an OD cut-off of 0.2 for positive samples. Anti-CCP antibody status was analysed using the CCP2 kit (Eurodiagnostica, Malmo, Sweden), according to the manufacturer's instructions.

[3] = test system: serum IgG of RA patients and healthy controls (US cohort); experiment: anti-CEP-1 antibody ELISA, independent US cohort; format: binding, human; details: cut-off 98th percentile of controls
From the text: as §1
as §2, with “ELISA on the US serum samples were performed in a similar manner, but with 2% BSA in carbonate buffer as background, and with an OD cut-off of 0.2 for positive samples.” left out, “instructions. […]” for “instructions.”

| Substance | inhibition of antibody binding to CEP-1-coated plates [1] | % positive, RA (n = 102) [2] | % positive, Disease controls (n = 110) [2] | % positive, Healthy controls (n = 92) [2] | other results |
| --- | --- | --- | --- | --- | --- |
| ckfag-X-nf-X-nplakc (CKFAG[Cit]NF[Cit]NPLAKC; disulfide 1-15 (inferred); listed as Homo sapiens) [Peptide 9, human α-enolase aa 422-434] | no inhibition | 15% | 1% | 1% | inhibition of antibody binding to CEP-1-coated plates ([1]; listed as peptide 9): did not result in decreased antibody binding |
| cyealel-X-dndkt-X-ymgkgvskc (CYEALEL[Cit]DNDKT[Cit]YMGKGVSKC; disulfide 1-23 (inferred); listed as Homo sapiens) [Peptide 3, human α-enolase aa 44-64] |  | 15% | 2% | 0% |  |
| ciqvvgddltvtnpk-X-iakac (CIQVVGDDLTVTNPK[Cit]IAKAC; disulfide 1-21 (inferred); listed as Homo sapiens) [Peptide 10, human α-enolase aa 313-331] |  | 6% |  | 1% |  |
| cnf-X-eam-X-igaevyhnlknc (CNF[Cit]EAM[Cit]IGAEVYHNLKNC; disulfide 1-20 (inferred); listed as Homo sapiens) [Peptide 5, human α-enolase aa 177-194] |  | 11% | 4% | 3% |  |
| ckiha-X-eifds-R-gnptvec (CKIHA[Cit]EIFDSRGNPTVEC; disulfide 1-19 (inferred); listed as Homo sapiens) [Peptide 1C] |  | 20% |  |  | sensitivity for RA [2]: about 20% |
| cvdlftskglf-X-aavpsgc (CVDLFTSKGLF[Cit]AAVPSGC; disulfide 1-19 (inferred); listed as Homo sapiens) [Peptide 2, human α-enolase aa 22-38] |  | 10% | 0% | 2% |  |
| cnpk-X-iakavnekscncllc (CNPK[Cit]IAKAVNEKSCNCLLC; also: cyclic via terminal Cys, bond and pairing not given here; listed as Homo sapiens) [Peptide 11, human α-enolase aa 324-341] | no inhibition | 18% |  | 0% | inhibition of antibody binding to CEP-1-coated plates ([1]; listed as peptide 11): did not result in decreased antibody binding |
| cekgvply-X-hiadlagnsec (CEKGVPLY[Cit]HIADLAGNSEC; disulfide 1-20 (inferred); listed as Homo sapiens) [Peptide 4, human α-enolase aa 125-142] | no inhibition | 16% | 2% | 2% | inhibition of antibody binding to CEP-1-coated plates ([1]; listed as peptide 4): did not result in decreased antibody binding |
| ckiig-X-eilds-X-gnptvec (CKIIG[Cit]EILDS[Cit]GNPTVEC; disulfide 1-19 (inferred); listed as Homo sapiens) [1A P. gingivalis, P. gingivalis enolase version of CEP-1, X = citrulline] |  | 34% |  |  | % healthy controls positive, US cohort (n=82) [3]: 2% |
| ckiha-R-eifds-X-gnptvec (CKIHAREIFDS[Cit]GNPTVEC; disulfide 1-19 (inferred); listed as Homo sapiens) [Peptide 1B] |  | 40% |  |  | IgG antibody levels / reactivity (OD450) in RA sera [2]: higher antibody levels; sensitivity for RA [2]: higher sensitivity |
| ckiha-R-eifds-R-gnptvec (CKIHAREIFDSRGNPTVEC; listed as Homo sapiens) [Peptide 1D, arginine containing control peptide, aa 5-21] | did not result in decreased antibody binding; also recorded: no inhibition |  | 2% | 3% | IgG antibody levels / reactivity (OD450) in RA sera [2]: low IgG-levels; also recorded: low reactivity; IgG antibody levels / reactivity (OD450) in RA sera ([2]; listed as arginine-containing control peptide): low degree of reactivity; IgG antibody levels / reactivity (OD450) in RA sera ([2]; listed as peptide 1D): low IgG-levels; sensitivity for RA [2]: about 4.9% |
| cakynqll-X-ieeelgskac (CAKYNQLL[Cit]IEEELGSKAC; disulfide 1-19 (inferred); listed as Homo sapiens) [Peptide 8, human α-enolase aa 405-421] |  | 7% | 4% | 0% |  |
